Results published in publication PMC11096368, “Transcriptomic signature, bioactivity and safety of a non-hepatotoxic analgesic generating AM404 in the midbrain PAG region” (Scientific Reports, 2024).
Entries after “also recorded” stand apart in the source; their conditions may differ. Read-outs that look alike come from different tables or passages of the source.

Tests used:
[1] = LC–MS/MS identification of serum NAPQI; assay type: in vivo; conditions: 600 mg/kg, CD-1 mice
Experimental: […] (NAPQI) was extracted from the serum by adding 3 volumes of ethyl-acetate to 1 volume of serum and storing them on ice for 30 min, followed by centrifugation at 3000g for 30 min. Afterward, the supernatant was transferred into mass spectrometry vials and dried under N2 gas. The serum was then washed with another 3 volumes of ethyl-acetate, and the supernatant was added back to the same mass spectrometry vial, followed by evaporation under a stream of N2 gas. The sample was re-suspended with 50 µl of 1:1 MeOH:H2O for LC–MS/MS experimentation. The mass spectrophotometer was operated in multiple reaction monitoring (MRM) mode using positive ion electrospray. NAPQI was detected by monitoring the m/z transition 150.3 → 108.1. Pure NAPQI analytical standard (10 ng/mL) obtained from Cayman Chemical (Ann Arbor, MI) was used to characterize the full fragmentation pattern of NAPQI and determine the likely fragments.

Sprague–Dawley rats = assay: CFA inflammatory pain / von Frey with electronic detection (eVF); assay type: in vivo; conditions: for Threshold for paw withdrawal, CFA-injected paw: young male rats, 18 g after CFA; for ED50: Rattus norvegicus, equimolar dosing; for Threshold for paw withdrawal, CFA-injected left hind paw: young female and aged male rats (Supplementary Fig. 3), from 25 g
Source text: (§1) The investigators were blinded till the completion of all the experiments. To ensure objectivity, investigators were blinded for the acetic acid and tail flick experiments. In the CFA/von Frey and Hargreaves assays, one investigator did the drug pre-treatments, and another investigator at another location who was not aware of the treatments conducted the behavioral testing. Moreover, these studies used the eVF device that electronically registers the grams of force necessary to elicit paw withdrawal, eliminating bias that confounded older versions of this test in which an investigator used a series of individual von Frey microfilaments to determine paw withdrawal thresholds. Six separate experimenters were involved in the data acquisition for behavioral testing, and another separate investigator performed all the statistical analyses using GraphPad Prism Version 9.1.2. Statistical significance was determined by p < 0.05; one-way ANOVA followed by Sidak’s multiple comparisons post hoc test. Mixed-gender experiments were powered to test for gender effects, and different ages of rodents were also included for the experiments – young (2 months) and aged (20 months) to tease out whether there are any effects of age-related changes in nociceptive sensitivity under naïve, and inflammatory pre-clinical rodent pain models. For the aged rats and mice, we could only obtain male Sprague–Dawley rats and male C57BL/6 mice of 20 months old from all commercial animal vendors and from the National Institute of Aging (NIA). So, only these rodents were used for the older animal experimental cohort. Old female rats and mice were not available at the time when these experiments were conducted. For ED50 calculation, dose–response curves were calculated with regression analysis and log transformation using GraphPad Prism 9.1.2.
In this model of mechanonociception, one hind paw at a time is stimulated with an electronic von Frey (eVF) filament (noxious source) until the animal retracts the paw from the mechanical stimulus. von Frey tests were conducted in a dedicated room at the LSUHSC New Orleans Neuroscience Center of Excellence vivarium. Rats were acclimated to their environment for 2 days for 30 min/day prior to testing. To obtain eVF pressure recordings, each animal was placed in an individual plastic observation compartment on a perforated metallic grid platform, which provided access to the plantar surface of the hind paws. After acclimation to the environment for 30 min, mechanical hypersensitivity was assessed by stimulating the mid-plantar area of each hind paw with a rigid tip von Frey filament attached to the eVF meter (Ugo Basile 38,450) until animals withdrew the paw from the filament. The withdrawal threshold was defined as the average force/pressure (g) required for the rat to withdraw the stimulated paw. A brisk withdrawal of the paw (often followed by a sustained retraction and/or licking) was considered a positive response, but paw withdrawals due to locomotion or weight shifting were not counted. The von Frey studies were conducted with an eVF device that electronically registers the grams of force necessary to elicit paw withdrawal in order to eliminate bias that confounded previous older versions of this test. Baseline withdrawal thresholds of both the right and left paws were recorded, and animals were assigned to different treatment groups so that each group had approximately equal withdrawal threshold averages in both paws. After baseline testing, treated animals received subcutaneous plantar injection (150 μl) of 50% CFA diluted and freshly mixed in sterile (0.9%) saline into the left hind paw unilaterally, while control animals received a plantar injection (150 µl) of 0.9% NaCl into their left hind paw. CFA induces inflammation, resulting in a left hind paw that is hypersensitive to mechanical stimulus, while the right hind paw serves as a within-subject baseline for each animal. […]

CD1 or C57BL/6 mice = assay: Cold stimulation tail flick somatic pain assay; assay type: in vivo; conditions: for ED50: Mus musculus, equimolar dosing; for Analgesia in cold tail-flick assay: high dose (100 mg/kg), all experimental cohorts
Source text: as §1
Half of the tail was immersed in ice-cold water maintained at 4 °C. For the tail-flick assays, we used n = 70 aged male mice, n = 90 young male mice, and n = 120 young female mice. Based on the availability of mice at the time of the experiments, different numbers of animals were assigned to different cohorts of experimental animals. Tail flick assay experiments were conducted on an open bench in a dedicated room at the LSUHSC New Orleans Neuroscience Center of Excellence vivarium. Mice were allowed to acclimate to the laboratory environment for 1 h prior to testing. To restrain the mice for the test, disposable plastic 50 mL screw-capped conical centrifuge tubes were cut at the tip to create a 0.5 cm opening to allow the mice to breathe freely. Another 0.5 cm opening was cut into the cap to allow access of the tail to the water bath. A 500 mL glass beaker was filled with 450 mL of ice-cold distilled water maintained at 4 °C with the addition of ice and determined with a glass thermometer. Mice were held over the opening of the water bath, and their tails submerged approximately halfway into the water. The nociceptive threshold was taken as the latency until the mice flicked their tail tip or removed the tail. The time from immersion to the attempted tail tip removal was measured to 1/10th of a sec with a digital laboratory timer. To minimize damage to the tail, a 60-s cut-off was utilized. […] Injections were at doses of 32 mg/kg and 100 mg/kg. 30 min post-drug administration tail-flick/withdrawal latency was measured.

[2] = tested on: Chinese Hamster ovary cells; assay: In vitro mammalian chromosomal aberration assay; assay type: cell-based; conditions: for Doses with cytotoxicity (≥ 45% reduction in cell growth index): non-activated 20-h exposure
Experimental: In the preliminary toxicity assay, the doses tested ranged from 0.0405 to 405 µg/mL (1 mM), which was the limit dose for this assay (Bioreliance, Rockville, MD USA).
The doses selected for evaluation of chromosome aberrations were 150, 300, and 405 µg/mL for the non-activated and S9-activated 4-h exposure groups; and 10, 40, and 80 µg/mL for the non-activated 20-h exposure group. […] The induction of structural aberrations was outside the 95% control limit of the historical negative control data of 0.00% to 2.79%. […] However, the induction of structural aberrations was within the 95% control limit of the historical negative control data of 0.00% to 4.28%. […] The induction of structural aberrations was outside the 95% control limit of the historical negative control data of 0.00% to 2.68%.
The induction of numerical aberrations was within the 95% control limit of the historical negative control data.

[3] = 100 mg/kg PO (cumulative dosing)
[4] = read-out: ED50 von-Frey Assay (Rats), Aged (Male)
[5] = read-out: ED50 von-Frey Assay (Rats), Young (Female)
[6] = read-out: ED50 von-Frey Assay (Rats), Young (Male)
[7] = read-out: ED50 Tail Flick Assay (Mice), Aged (Male)
[8] = read-out: ED50 Tail Flick Assay (Mice), Young (Female)
[9] = read-out: ED50 Tail Flick Assay (Mice), Young (Male)

Row | SMILES | Formation of the hepatotoxic metabolite NAPQI (serum) [1] | Threshold for paw withdrawal, CFA-injected paw (Sprague–Dawley rats; 32 mg/kg PO) [g] | Threshold for paw withdrawal, CFA-injected paw (Sprague–Dawley rats; [3]) [g] | ED50 (Sprague–Dawley rats; [4]) [µmol/kg] | ED50 (Sprague–Dawley rats; [5]) [µmol/kg] | ED50 (Sprague–Dawley rats; [6]) [µmol/kg] | ED50 (CD1 or C57BL/6 mice; [7]) [µmol/kg] | ED50 (CD1 or C57BL/6 mice; [8]) [µmol/kg] | ED50 (CD1 or C57BL/6 mice; [9]) [µmol/kg] | Analgesia in cold tail-flick assay (CD1 or C57BL/6 mice) | Threshold for paw withdrawal, CFA-injected left hind paw (Sprague–Dawley rats; 32 mg/kg) [g] | Threshold for paw withdrawal, CFA-injected left hind paw (Sprague–Dawley rats; 100 mg/kg) [g] | Cytotoxicity (≥ 45% reduction in cell growth index) [2] | Induction of numerical chromosomal aberrations [2] | Induction of structural chromosomal aberrations [2] | Structural aberrations ([2]; Chinese hamster, 20 h, 80 µg/mL) [%] | Dose with cytotoxicity (≥ 45% reduction in cell growth index) ([2]; chromosome aberration assay, non-activated 4-h exposure) [µg/mL] | Doses with cytotoxicity (≥ 45% reduction in cell growth index) ([2]; chromosome aberration assay) [µg/mL] | Doses with cytotoxicity (≥ 45% reduction in cell growth index) ([2]; preliminary toxicity assay) [µg/mL]
1 | CC(=O)Nc1ccc(O)cc1 [ApAP, acetaminophen, reference compound] | a NAPQI peak is seen; also recorded: significantly enhanced; also recorded: NAPQI peak appears | 34 | 50 | 358 | 292 | 574 | 281 | 70.3 | 71.8 | significant analgesia |  |  |  |  |  |  |  |  | 
2 | CCN(CC)C(=O)c1ccccc1S(=O)(=O)NCC(=O)Nc1ccc(O)cc1 [SRP-001, N,N-diethyl-2-[[2-(4-hydroxyanilino)-2-oxo-ethyl]sulfamoyl]benzamide] | lack of formation of the toxic quinonimine metabolite NAPQI; also recorded: does not produce the hepatotoxic metabolite; also recorded: lack of production of NAPQI | 40 | 55 | 454 | 121 | 190 | 81.6 | 44.9 | 60 | significant analgesia | 32 | 40 | not observed at any dose | negative | positive | 3.7 | 405 | ≥ 70 | ≥ 122
